Measured values taken from US5510459A, “Glucagon antagonists” (ZymoGenetics, Inc., priority 1992, dated 1996).
Ends that are not written are not given here.

Assays:
[1] = molecular target: T1, glucagon receptor (rat liver membrane adenylate cyclase) (Rattus norvegicus, UniProt P30082); assay: Adenylate cyclase activity assay with synthetic peptide glucagon analogs (Example 6); type: biochemical; conditions: synthetic peptides; in the presence of 20 nm glucagon
T1 construct: A. Preparation of Rat Liver Membranes; from tissue; host or cells: rat liver (Sprague-Dawley) plasma membranes
T1 sequence (P30082 27-485): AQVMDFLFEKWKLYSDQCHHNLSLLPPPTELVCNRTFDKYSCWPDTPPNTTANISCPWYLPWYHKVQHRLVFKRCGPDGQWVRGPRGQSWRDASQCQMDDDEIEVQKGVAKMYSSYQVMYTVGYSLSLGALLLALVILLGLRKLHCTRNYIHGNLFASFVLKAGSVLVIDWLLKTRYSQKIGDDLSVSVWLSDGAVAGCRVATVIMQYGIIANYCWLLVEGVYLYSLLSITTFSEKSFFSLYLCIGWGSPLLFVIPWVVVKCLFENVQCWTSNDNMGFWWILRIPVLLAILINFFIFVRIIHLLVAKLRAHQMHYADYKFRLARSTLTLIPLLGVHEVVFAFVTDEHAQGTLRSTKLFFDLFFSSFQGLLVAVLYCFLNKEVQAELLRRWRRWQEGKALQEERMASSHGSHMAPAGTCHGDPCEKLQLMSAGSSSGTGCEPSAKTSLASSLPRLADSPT
Procedure: The adenylate cyclase assay was carried out byfirst adding 5 μl of sample (e.g. yeast broth) containingpotential inhibitors at micromolar concentrations to eachwell of a 96-well microtiter plate. […] Fifty microliters of the A+Bsolution was added to each "no glucagon" control well.Glucagon was added from the "G" solution to the remainingA+B solution to a concentration of 1×10^-8 M (thisresults in a final assay concentration of 5×10^-9).Fifty microliters of the A+B+glucagon solution was addedto each well, excluding the "no glucagon" controls. Themembrane preparation was diluted to approximately 2 mg/mlprotein with water. The reaction was started by theaddition of 45 μl of diluted membrane to each well, inorder. The assays were incubated for 12 minutes at roomtemperature, and were stopped by the addition of 100 μl ofStop Mix to each well in the same order that the dilutedmembrane was added. The assay mixtures were clarified bycentrifugation, and the assays were stored at 4° C.
Cyclic AMP concentrations were determined usingan Amersham Scintillation Proximity Assay Kit (Amersham,Arlington Heights, Ill.). Briefly, 10 μl from eachadenylate cyclase reaction was added to individual betaplate wells. Each sample was diluted with 65 μl of 50 mM Na Acetate. Cyclic AMP standards were prepared at 0.0,1.6 and 6.4×10^-9 M or may be prepared from the"non-standards" supplied with Amersham kit.Triplicate standards of 75 μl of each standard were addedto individual beta plate wells. Nonspecific binding (NSB)controls were prepared by adding 150 μl of 50 mM NaAcetate to triplicate beta plate wells. […] Seventy-fivemicroliters of diluted anti-rabbit SPA reagent was thenadded to each well, and the plates were sealed andincubated, with shaking, overnight at room temperature.The plates were counted for one minute per sample in abeta-plate counter. […] The percent response for thestandards and samples was determined using the formula: […]

[2] = molecular target: T2, glucagon receptor (liver plasma membranes) (Rattus norvegicus, UniProt P30082); assay: Glucagon binding assay (125I-glucagon, liver plasma membranes); conditions: 30 minute incubation at 30° C., peptide 1.5-800 ng/ml
T2 construct: 25 μl of freshly thawed plasmamembrane containing 10-20 μg of plasma membrane protein; from tissue
T2 sequence (P30082 27-485): as above
Procedure: The ability of the synthetic peptides to inhibitglucagon binding was determined by measuring the bindingof radiolabeled glucagon in the presence of syntheticpeptide relative to the binding of radiolabeled glucagonin the absence of the synthetic peptides. The syntheticpeptides were dissolved in 10% acetic acid and lyophilizedbefore use. Glucagon was dissolved in 10% acetic acid andlyophilized in 25-μg portions for use as standards. ^125 I-glucagonwith a specific activity of 11.1 kBq/ng wasobtained from Novo Biolabs (Novo Alle, Bagsvaerd, Denmark)and stored at -18° C. Plasma membranes were prepared aspreviously described, except protein detemination wascarried out using a Bio-Rad Protein Assay (BioRad,Richmond, Calif.) according to the manufacturer's directionsusing bovine serum albumin as a standard. Milli-Q gradewater was used throughout .
The lyophilized glucagon and synthetic peptideswere dissolved in 100 μl of 0.05M HCl, left for 3 minutes. The glucagon was diluted with buffer (2.5% humanserum albumin Grade 5, Sigma Chemical Co., St. Louis, Mo.! in 0.1M HEPES, 0.15M NaCl, pH 7.4) to 0.2-200ng/ml.The synthetic peptides were diluted with the same bufferto 1.5-800 ng/ml. […] The filters were counted in a gamma counter.The binding of des-His^1 -(Ala^2,11 -Glu^21)glucagonamide wasshown to be 84%±9.3.

[3] = molecular target: T1, glucagon receptor (rat liver membrane adenylate cyclase); assay: Glucagon antagonist screening assay: adenylate cyclase reaction and cAMP assay with yeast culture broths; type: biochemical; conditions: no exogenous glucagon
Description: Young female Sprague-Dawley rats were used forthe preparation of liver membranes using the methodessentially described by Neville (ibid.) and modified byPohl et al. (ibid). Ten to 15 rats yielding 60-100 grams of liver were processed per batch. After the rats wereeuthanized by cervical dislocation, their livers weresurgically removed and transferred, as quickly aspossible, to an iced beaker. Scissors were used to mincethe tissue into pieces approximately 3-6 mm in size. Anyconnective tissue that was present was removed.
The minced tissue was suspended in ice cold 1 mMsodium bicarbonate at a concentration of approximately300 g/l. This suspension was processed in batches in atissue homogenizer with eight strokes of the loose pestle.The homogenate was mixed with additional ice cold 1 mMsodium bicarbonate to yield a final concentration of about40-80 g/l. […]
After centrifugation, as much of the supernatantas possible was carefully decanted and discarded, and thepellets were gently resuspended in the remainingsupernatant with three strokes of the loose pestle in aclean tissue homogenizer. […] After thorough mixing, thesucrose concentration was measured with a refractometerand adjusted to between 43.9% and 44.1% sucrose(corresponding to a refractive index between 1.4076 and1.4080) with either 69% sucrose or water. […]

CSCC[C@H](NC(=O)[C@H](CC(C)C)NC(=O)[C@H](Cc1c[nH]c2ccccc12)NC(=O)[C@H](CCC(N)=O)NC(=O)[C@@H](NC(=O)[C@H](Cc1ccccc1)NC(=O)[C@H](CC(=O)O)NC(=O)[C@H](CCC(N)=O)NC(=O)[C@H](C)NC(=O)[C@H](CCCNC(=N)N)NC(=O)[C@H](CCCNC(=N)N)NC(=O)[C@H](CO)NC(=O)[C@H](CC(=O)O)NC(=O)[C@H](CC(C)C)NC(=O)[C@H](Cc1ccc(O)cc1)NC(=O)[C@H](CCCCN)NC(=O)[C@H](CO)NC(=O)[C@H](Cc1ccc(O)cc1)NC(=O)[C@H](CC(=O)O)NC(=O)[C@H](CO)NC(=O)[C@@H](NC(=O)[C@H](Cc1ccccc1)NC(=O)[C@@H](NC(=O)CNC(=O)[C@H](CCC(N)=O)NC(=O)[C@@H](N)CO)[C@@H](C)O)[C@@H](C)O)C(C)C)C(=O)N[C@@H](CC(N)=O)C(=O)N[C@@H](CO)C(=O)O [F73, des-His^1 - Ser^29 !glucagon]
inhibition coefficient (I/A50): ratio of inhibitor to agonist concentration wherein the response is reduced to one-half [1]: 30

AQGTFTSDYAKYLDSRRAQEFVQWLMNT-NH2 [des-His^1 -(Ala^2,11 -Glu^21)glucagon amide]
binding (inhibition of radiolabeled glucagon binding) [2]: 84%±9.3

DAQGTFISDYSKYLDSRRAQDFVQWLMNT [BB65, Asp^1 -Ala^2 -Ile^7 !glucagon]
inhibition coefficient (I/A50): ratio of inhibitor to agonist concentration wherein the response is reduced to one-half [1]: 25

SQSTFTSDYSKYLDSRRAQDFVQWLMNT [G56, des-His^1 - Ser^4 !glucagon]
inhibition coefficient (I/A50): ratio of inhibitor to agonist concentration wherein the response is reduced to one-half [1]: 25

glucagon [ZB210]
stimulation of adenylate cyclase activity by culture broth in the absence of exogenous glucagon [3]: stimulation of adenylate cyclase
